Source: PMC6244841, “Enhanced Absorption and Growth Inhibition with Amino Acid Monoester Prodrugs of Floxuridine by Targeting hPEPT1 Transporters” (Molecules, 2008)
Marks after values point to notes of the source that are not given here.

Key:
[1] = Enzymatic stability in Caco-2 cell homogenates; assay type: in vitro ADME; details: for half-life: human, Caco-2, pH 7.4, 37°C, protein 500 μg/mL, mean ± S.D., read-out: Half Life, Homogenates from Caco-2 cells
Experimental: (§1) The experiments concerning prodrug stability were performed at 37°C in pH 7.4 phosphate buffers and Caco-2, AsPC-1, and MDCK cell homogenates.
(§2) Enzymatic Stability. Confluent Caco-2 cells, AsPC-1 cells, and MDCK cells were rinsed twice with saline. The cells were washed with pH 7.4 phosphate buffer (5 mL, 10 mmol/L), lysed by ultrasonication (Micro ultrasonic cell disrupter Model KT40, Kontes, Vineland, NJ, USA), and pelleted by centrifugation for 5 minutes at 1,000 x g. Protein amount was quantified with the Bio-Rad (Hercules, CA, USA) DC Protein Assay using bovine serum albumin as a standard. The amount of protein was adjusted to 500 μg/mL and hydrolysis reactions were carried out in 96-well plates (Corning). Caco-2, AsPC-1, and MDCK cell suspensions (250 µL) were placed in triplicate wells, the reactions were started with the addition of substrate, and cells were incubated at 37°C for 120 minutes. At the desired time point, sample aliquots (35 µL) were removed and added to acetonitrile (ACN, 150 µL) with 0.1% TFA. The mixtures were filtered with a 0.45 µm filters at 1,000 x g for 10 minutes at 4°C. The filtrate was then analyzed via reverse-phase HPLC.
(§3) The initial rates of hydrolysis were used to obtain the apparent first-order rate constants and to calculate the half-lives. The apparent first-order degradation rate constants of various floxuridine prodrugs at 37°C were determined by plotting the logarithm of prodrug remaining as a function of time. The slopes of these plots are related to the rate constant, k, and given by
(§4) k = 2.303 × slope (log C vs. time) (1)
(§5) The degradation half-lives were then calculated by the equation

[2] = Enzymatic stability in AsPC-1 cell homogenates; assay type: in vitro ADME; details: for half-life: human, AsPC-1 cell homogenate, pH 7.4, 37°C, protein 500 μg/mL, mean ± S.D., read-out: Half Life, Homogenates from AsPC-1 cells
Experimental: as §1, §2, §3, §4, §5

MDCK cells = test: Cell proliferation assay (XTT) in MDCK cells; assay type: cell-based; details: Canis lupus familiaris, 2 hours exposure, 24 hours recovery, mean ± S.D.
Experimental: (§6) Cell proliferation studies were conducted with MDCK cells and MDCK cells that express hPEPT1 (MDCK/hPEPT1). The cells were seeded into 96-well plates at 125,000 cells per well and allowed to attach/grow for 24 hours before drug solutions were added. The culture medium (DMEM + 10% fetal bovine serum) was removed and the cells were gently washed once with sterile pH 6.0 uptake buffer. Floxuridine and floxuridine prodrugs were 2-fold serially diluted in pH 6.0 uptake buffer from 4 to 0.25 mmol/L. Buffer alone was used as 100% viability control. The wash buffer was removed and 30 µL drug solution per well was added and incubated at 37°C for 2 hours in the cell incubator. After this time, the drug solutions were removed and the cells were again gently washed twice with sterile uptake buffer. The culture medium was then added to each well after washing. The cells were allowed to recover for 24 hours before evaluating cell viability via 2,3-bis[2-methoxy-4-nitro-5-sulfophenyl]-2H-tetrazolium-5-carboxanilide inner salt (XTT) assays. A mixture (30 µL) containing XTT (1 mg/mL) in sterile DMEM without phenol red and phenazine methosulfate (N-methyldibenzopyrazine methyl sulfate in sterile PBS, 0.383 mg/mL) reagents were added to the cells and incubated at 37°C for 1 hour, after which the absorbance at 450 nm was read. The concentrations required to inhibit cell growth by 50% (GI50) were calculated using GraphPad Prism version 3.0 by nonlinear data fitting.

[3] = Enzymatic stability in MDCK cell homogenates; assay type: in vitro ADME; details: dog, pH 7.4, 37°C, protein 500 μg/mL, mean ± S.D., read-out: Half Life, Homogenates from MDCK cells
Experimental: as §1, §2, §3, §4, §5

[4] = Chemical stability (nonenzymatic hydrolysis) in pH 7.4 phosphate buffer; assay type: physicochemical; details: 37°C, mean ± S.D.
Experimental: as §1
Chemical Stability. The nonenzymatic hydrolysis of the prodrugs was determined as described above, except that each well contained pH 7.4 phosphate buffers (10 mmol/L) instead of cell homogenate.
as §3, §4, §5

hPEPT1 [5] = target: T1, hPEPT1 (Homo sapiens, UniProt P46059); test: [3H]Gly-Sar uptake inhibition in Caco-2 cells; assay type: cell-based; details: for IC50: 10 µmol/L Gly-Sar, 30 minutes, mean ± S.D., read-out: IC50 Value, inhibition of Gly-Sar uptake, Caco-2 cell
T1 sequence (P46059 1-708): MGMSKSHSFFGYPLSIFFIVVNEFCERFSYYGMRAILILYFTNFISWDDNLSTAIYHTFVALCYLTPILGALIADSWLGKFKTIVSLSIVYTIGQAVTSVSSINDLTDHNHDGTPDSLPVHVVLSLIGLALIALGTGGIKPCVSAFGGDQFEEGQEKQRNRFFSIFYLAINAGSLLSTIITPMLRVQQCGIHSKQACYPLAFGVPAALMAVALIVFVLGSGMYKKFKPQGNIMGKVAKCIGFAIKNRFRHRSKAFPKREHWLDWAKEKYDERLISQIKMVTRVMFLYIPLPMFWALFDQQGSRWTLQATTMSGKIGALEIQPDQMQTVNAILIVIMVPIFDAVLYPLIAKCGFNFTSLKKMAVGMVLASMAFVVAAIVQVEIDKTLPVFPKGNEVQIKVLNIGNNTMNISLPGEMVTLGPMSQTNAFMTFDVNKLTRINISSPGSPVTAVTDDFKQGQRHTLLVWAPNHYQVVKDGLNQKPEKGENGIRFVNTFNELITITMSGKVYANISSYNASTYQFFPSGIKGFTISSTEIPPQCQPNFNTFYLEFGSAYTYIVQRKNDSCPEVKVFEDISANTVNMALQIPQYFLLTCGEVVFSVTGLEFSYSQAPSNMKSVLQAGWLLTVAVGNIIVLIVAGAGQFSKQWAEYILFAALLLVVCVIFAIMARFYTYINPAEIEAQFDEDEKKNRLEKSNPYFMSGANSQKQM
Experimental: (§7) Caco-2 cells at nine days post-seeding, and AsPC-1 cells at four days post-seeding were incubated with 10 µmol/L Gly-Sar (9.98 µmol/L Gly-Sar and 0.02 µmol/L [3H]Gly-Sar) along with various prodrug concentrations (5–0.05 mmol/L) for 30 minutes. The cells were washed three times with ice-cold PBS and solubilized with 10 mL of scintillation cocktail (ScintiVerse®, Fisher Scientific, St.Louis, MO, USA). The amount of cell-associated radioactivity was determined by scintillation counting (Beckman LS-9000, Beckman Instruments, Fullerton, CA, USA). The half maximal inhibitory concentration (IC50) values were determined using nonlinear data fitting (GraphPad Prism version 3.0).

hPEPT1 [6] = target: T1, hPEPT1; test: [3H]Gly-Sar uptake inhibition in AsPC-1 cells; assay type: cell-based; details: for IC50: 10 µmol/L Gly-Sar, 30 minutes, mean ± S.D., read-out: IC50 Value, inhibition of Gly-Sar uptake, AsPC-1 cell
Experimental: as §7

MDCK/hPEPT1 cells = test: Cell proliferation assay (XTT) in MDCK/hPEPT1 cells; assay type: cell-based; details: for GI50: Canis lupus familiaris, MDCK, read-out: GI50, MDCK/hPEPT1
Experimental: as §6

[7] = set-up: method as in PMID 16132363; details: pH 7.4 phosphate buffer, 37°C, mean ± S.D.; ref [40]; cited from earlier work
[8] = Caco-2 permeability study (apical-to-basolateral); details: relative to 5-FU
[9] = relative to 5'-O-L-valyl-floxuridine

Structure (SMILES)	half-life [1] [min]	half-life [2] [min]	GI50 (MDCK cells) [µM]	half-life [3] [min]	half-life [4] [min]	IC50 (hPEPT1 [5]) [µM]	IC50 (hPEPT1 [6]) [µM]	GI50 (MDCK/hPEPT1 cells) [µM]	Enhancement Factor (ratio of GI50 in MDCK and MDCK/hPEPT1 cells) (MDCK/hPEPT1 cells)	further results
CC(C)[C@@H](N)C(=O)OC[C@H]1O[C@@H](n2cc(F)c(=O)[nH]c2=O)C[C@@H]1O [5'-O-D-valyl-floxuridine]	343 ± 120	291 ± 48.9	88.5 ± 2.6	312 ± 45.4	345 ± 10.2	2600 ± 100	4800 ± 1300	71 ± 2.7	1.25	fold less inhibition of the transporters than 5'-O-L-valyl-floxuridine, Caco-2 cells (hPEPT1 [5]; [9]): 2.5 fold; fold less inhibition of the transporters than 5'-O-L-valyl-floxuridine, AsPC-1 cells (hPEPT1 [6]; [9]): 1.6 fold; improvement of cell growth inhibition in MDCK/hPEPT1 cells (MDCK/hPEPT1 cells; MDCK/hPEPT1 vs MDCK): 25%
NCC(=O)OC[C@H]1O[C@@H](n2cc(F)c(=O)[nH]c2=O)C[C@@H]1O [5'-O-L-glycyl-floxuridine]	24.1 ± 2	27.6 ± 5.8		11.2 ± 2	85.5 ± 3.2	2300 ± 600	2700 ± 500			
CC[C@H](C)[C@H](N)C(=O)OC[C@H]1O[C@@H](n2cc(F)c(=O)[nH]c2=O)C[C@@H]1O [5'-O-L-isoleucyl-floxuridine]	192 ± 31.8	198 ± 34.1	186 ± 4.2	245 ± 18.3		700	4100 ± 1800	10.3 ± 2.9	18.04	Half Life, Buffer pH 7.4 [7]: 323.5 ± 1.5^a min; Enhancement Factor (ratio of GI50 in MDCK and MDCK/hPEPT1 cells) (MDCK/hPEPT1 cells; listed as 5ʹ-O-L-isoleucyl-floxuridine): 18
CC(C)C[C@H](N)C(=O)OC[C@H]1O[C@@H](n2cc(F)c(=O)[nH]c2=O)C[C@@H]1O [5'-O-L-leucyl-floxuridine]	4.8 ± 0.2	2 ± 0.1	23.5 ± 3	9.2 ± 1.1	77.3 ± 1.2	2000 ± 300	2600 ± 200	2.3 ± 1	10.09	fold more quickly hydrolyzed in AsPC-1 cell homogenates than in Caco-2 cell homogenates ([2]; AsPC-1 vs Caco-2 homogenates): 2.4 fold; fold more quickly hydrolyzed in AsPC-1 cell homogenates than in MDCK cell homogenates ([2]; AsPC-1 vs MDCK homogenates): 4.7 fold; Enhancement Factor (ratio of GI50 in MDCK and MDCK/hPEPT1 cells) (MDCK/hPEPT1 cells; listed as 5ʹ-O-L-leucyl-floxuridine): 10
N[C@@H](Cc1ccccc1)C(=O)OC[C@H]1O[C@@H](n2cc(F)c(=O)[nH]c2=O)C[C@@H]1O [5'-O-L-phenylalanyl-floxuridine]	11.1 ± 9.9	11.8 ± 1.7	41.3 ± 3.9	6 ± 0.6	222 ± 56.7	2100 ± 100	2000 ± 100	4.7 ± 2.4	8.80	fold less stability in cell homogenates compared to pH 7.4 phosphate buffers ([1]; cell homogenates vs pH 7.4 phosphate buffers): 20 fold
CC(C)[C@H](N)C(=O)OC[C@H]1O[C@@H](n2cc(F)c(=O)[nH]c2=O)C[C@@H]1O [5'-O-L-valyl-floxuridine]	9.4 ± 0.6	18.7 ± 6.7	127 ± 7.7	74.7 ± 5.3	304 ± 17.8	1000 ± 100	2900 ± 400	21.1 ± 4.2	5.91	fold shorter half-life in Caco-2 cell homogenates than in AsPC-1 cell homogenates ([1]; Caco-2 vs AsPC-1 cell homogenates): 2 fold; Enhancement Factor (ratio of GI50 in MDCK and MDCK/hPEPT1 cells) (MDCK/hPEPT1 cells; listed as 5ʹ-O-L-valyl-floxuridine): about 6
O=c1[nH]c(=O)n([C@H]2C[C@H](O)[C@@H](CO)O2)cc1F [Floxuridine, 5-fluoro-2'-deoxyuridine]	5.7 ± 0.3	6.4 ± 3.2		68.9 ± 12.8		7300 ± 1600	6300 ± 2300		1.00	fold higher Caco-2 membrane permeability than 5-FU [8]: 12 fold
